Patent publication US20090143279A1 (priority 2007, published 2009)
Like-named read-outs stand apart in the source and are kept apart here. Where a SMILES comes first, the peptide text is derived from it. Bridges are numbered along the chain shown (N, C = ends). [ ]: non-standard residue; d: D form. The star is where a group is joined. Ileψ(thiazoline)Cys = CC[C@H](C)[C@H](N)C1=N[C@H](C(=O)*)CS1; dOrn = NCCC[C@@H](N)C(=O)O

What was measured:
OXPHOS gene expression = format: cell-based, mouse
nuOXPHOS transcripts = format: cell-based, mouse
[1] = system: cellular dehydrogenase activity
mtOXPHOS transcripts = format: cell-based, mouse
[2] = system: mitochondrial membrane potential; format: cell-based, mouse
cytochrome c = format: cell-based, mouse
reactive oxygen species = format: cell-based, mouse
[3] = composite Z-score vs DMSO, Conc 20 μM
[4] = 20 μM, composite Z-score vs DMSO
[5] = composite Z-score vs mock-treated (DMSO) wells, concentration of each compound in μM
[6] = Conc 20 μM, normalized score vs mock-treated (DMSO) wells
[7] = normalized composite Z-score vs mock-treated (DMSO) wells, Conc 20 μM
[8] = Table 4, C2C12 myotubes, 48 h, composite Z-score
[9] = Table 4, C2C12 myotubes, 48 h, JC-1, composite Z-score
[10] = composite Z-score vs DMSO wells, Conc 20 μM

C/C=C(\C)C(=O)O[C@H]1C[C@@H](OC(C)=O)[C@@]2(C(=O)OC)CO[C@H]3[C@@H](O)[C@@](C)([C@]45O[C@@]4(C)[C@H]4C[C@@H]5O[C@@H]5OC=C[C@@]54O)[C@H]4[C@]1(CO[C@]4(O)C(=O)OC)[C@@H]32 [azadirachtin]
Viability (C2C12 myotubes; [3]): −0.479
GE-HTS (OXPHOS gene expression; [3]): 0.119
nucOX (nuOXPHOS transcripts; [3]): 0.152
MTT [1, 3]: −1.018
mitoOX (mtOXPHOS transcripts; [3]): 0.042
ΔΨm [2, 3]: −0.670
cyt c (cytochrome c; [3]): −0.421
ROS (reactive oxygen species; [3]): 0.494

CC[C@H](C)[C@H](N)C1=N[C@H](C(=O)N[C@@H](CC(C)C)C(=O)N[C@H](CCC(=O)O)C(=O)N[C@H](C(=O)N[C@H]2CCCCNC(=O)[C@H](CC(N)=O)NC(=O)[C@@H](CC(=O)O)NC(=O)[C@H](Cc3cnc[nH]3)NC(=O)[C@@H](Cc3ccccc3)NC(=O)[C@H]([C@@H](C)CC)NC(=O)[C@@H](CCCN)NC2=O)[C@@H](C)CC)CS1 [bacitracin] ({Ileψ(thiazoline)Cys}-L[dE]IK[dOrn]I[dF]H[dD]N; lactam 4-C)
Viability (C2C12 myotubes; [4]): −0.312
Viability (C2C12 myotubes; [5]): −0.938
GE-HTS (OXPHOS gene expression; [4]): 1.271
GE-HTS (OXPHOS gene expression; [5]): −0.592
nucOX (nuOXPHOS transcripts; [4]): 1.374
nucOX (nuOXPHOS transcripts; [5]): −0.736
MTT [1, 4]: −0.826
MTT [1, 5]: −0.310
mitoOX (mtOXPHOS transcripts; [4]): 0.798
mitoOX (mtOXPHOS transcripts; [5]): −0.189
ΔΨm [2, 4]: −0.113
ΔΨm [2, 5]: −0.214
cyt c (cytochrome c; [4]): 0.305
cyt c (cytochrome c; [5]): −0.806
ROS (reactive oxygen species; [4]): 1.177
ROS (reactive oxygen species; [5]): 0.105

COc1cc2c3cc1Oc1cc(ccc1O)CC1c4c(cc(OC)c(O)c4Oc4ccc(cc4)CC3N(C)CC2)CCN1C (stereo not drawn) [bebeerine]
Viability (composite Z-score) (C2C12 myotubes; [6]): −0.728
GE-HTS (composite Z-score) (OXPHOS gene expression; [6]): −0.005
nucOX (composite Z-score) (nuOXPHOS transcripts; [6]): −0.028
MTT (composite Z-score) [1, 6]: −1.681
mitoOX (composite Z-score) (mtOXPHOS transcripts; [6]): 0.119
ΔΨm (composite Z-score) [2, 6]: −0.800
cyt c (composite Z-score) (cytochrome c; [6]): 0.389
ROS (composite Z-score) (reactive oxygen species; [6]): 0.759

COc1cc2c3cc1Oc1c(OC)c(OC)cc4c1[C@@H](Cc1ccc(O)c(c1)Oc1ccc(cc1)C[C@@H]3N(C)CC2)N(C)CC4 [berbamine]
Viability (C2C12 myotubes; [3]): −1.126
GE-HTS (OXPHOS gene expression; [3]): −0.345
nucOX (nuOXPHOS transcripts; [3]): −0.166
MTT [1, 3]: −1.021
mitoOX (mtOXPHOS transcripts; [3]): −0.636
ΔΨm [2, 3]: −0.289
cyt c (cytochrome c; [3]): 0.445
ROS (reactive oxygen species; [3]): 0.153

CC12CCCC(O)(C1)C1CC(C)(C)C1CC2 (stereo not drawn) [beta-caryophyllene alcohol]
Viability (C2C12 myotubes; [7]): −0.960
GE-HTS (OXPHOS gene expression; [7]): 0.155
nucOX (nuOXPHOS transcripts; [7]): 0.105
MTT [1, 7]: −1.859
mitoOX (mtOXPHOS transcripts; [7]): 0.264
ΔΨm [2, 7]: −0.433
cyt c (cytochrome c; [7]): −1.030
ROS (reactive oxygen species; [7]): 1.180

COc1cc2c(cc1OC)[C@@H]1C(=O)c3ccc4c(c3O[C@@H]1CO2)CC(C(C)C)O4 (stereo partly drawn) [beta-dihydrorotenone, reference compound]
Viability (C2C12 myotubes; [8]): −0.184
Viability (C2C12 myotubes; [3]): −0.184
GE-HTS (OXPHOS gene expression; [3]): −0.818
nucOX (nuOXPHOS transcripts; [3]): −0.828
MTT [1, 8]: −2.771
MTT [1, 3]: −2.771
mitoOX (mtOXPHOS transcripts; [3]): −0.695
ΔΨm [2, 9]: 1.079
ΔΨm [2, 3]: 1.079
cyt c (cytochrome c; [3]): −0.408
ROS (reactive oxygen species; [8]): 0.122
ROS (reactive oxygen species; [3]): 0.122

COc1cc2c(cc1OC)C1C(=O)c3c(cc4c(c3O)C=CC(C)(C)O4)OC1CO2 (stereo not drawn) [beta-toxicarol, reference compound]
Viability (C2C12 myotubes; [8]): 0.672
Viability (C2C12 myotubes; [7]): 0.672
GE-HTS (OXPHOS gene expression; [7]): −1.508
nucOX (nuOXPHOS transcripts; [7]): −1.773
MTT [1, 8]: −1.498
MTT [1, 7]: −1.498
mitoOX (mtOXPHOS transcripts; [7]): −0.627
ΔΨm [2, 9]: 0.899
ΔΨm [2, 7]: 0.899
cyt c (cytochrome c; [7]): −0.239
ROS (reactive oxygen species; [8]): −0.188
ROS (reactive oxygen species; [7]): −0.188

CNCCc1ccccn1 [betahistine]
Viability (C2C12 myotubes; [10]): 1.068
GE-HTS (OXPHOS gene expression; [10]): −0.284
nucOX (nuOXPHOS transcripts; [10]): −0.008
MTT [1, 10]: 0.861
mitoOX (mtOXPHOS transcripts; [10]): −0.718
ΔΨm [2, 10]: 0.125
cyt c (cytochrome c): 0.296
cyt c (cytochrome c; [10]): 0.386
ROS (reactive oxygen species; [10]): −0.176

C[N+](C)(C)CC(=O)O [betaine]
Viability (C2C12 myotubes): 0.548
GE-HTS (OXPHOS gene expression): 0.478
nucOX (nuOXPHOS transcripts): 0.354
MTT [1]: 1.036
mitoOX (mtOXPHOS transcripts): 0.604
ΔΨm [2]: 0.345
cyt c (cytochrome c): −0.998
ROS (reactive oxygen species): −0.348

C[C@H]1C[C@H]2[C@@H]3CCC4=CC(=O)C=C[C@]4(C)[C@@]3(F)[C@@H](O)C[C@]2(C)[C@@]1(O)C(=O)CO [betamethasone]
Viability (composite Z-score) (C2C12 myotubes): −0.984
GE-HTS (composite Z-score) (OXPHOS gene expression): 0.740
nucOX (composite Z-score) (nuOXPHOS transcripts): 0.633
MTT (composite Z-score) [1]: −1.063
mitoOX (composite Z-score) (mtOXPHOS transcripts): 0.853
ΔΨm (composite Z-score) [2]: 0.849
cyt c (composite Z-score) (cytochrome c): 0.130
ROS (composite Z-score) (reactive oxygen species): 0.541

C=C(C)[C@@H]1CC[C@]2(C(=O)O)CC[C@]3(C)[C@H](CC[C@@H]4[C@@]5(C)CC[C@H](O)C(C)(C)[C@@H]5CC[C@]43C)[C@@H]12 [betulinic acid]
Viability (C2C12 myotubes; [3]): 0.850
GE-HTS (OXPHOS gene expression; [3]): 0.145
nucOX (nuOXPHOS transcripts; [3]): 0.069
MTT [1, 3]: −2.381
mitoOX (mtOXPHOS transcripts; [3]): 0.259
ΔΨm [2, 3]: −1.220
cyt c (cytochrome c; [3]): 0.481
ROS (reactive oxygen species; [3]): 0.202
